Measurements from the NIST ThermoML archive (doi:10.1016/j.jct.2018.08.004).
± gives the expanded uncertainty stated by the source.

Test: xn = mol fraction of the nth substance listed
Details: for surface tension liquid-gas: Maximal bubble pressure; for mass density: 100 kPa, Liquid, Vibrating tube method

Compound: CCCC[n+]1ccccc1.N#C[N-]C#N [1-butylpyridinium dicyanamide] + CCO
- surface tension liquid-gas (288.15 K, x1 = 0.0999): 25.7 ± 0.9 mN/m
- surface tension liquid-gas (288.15 K, x1 = 0.201): 28 ± 0.9 mN/m
- surface tension liquid-gas (288.15 K, x1 = 0.2996): 30.3 ± 1 mN/m
- surface tension liquid-gas (288.15 K, x1 = 0.3993): 33.2 ± 1.1 mN/m
- surface tension liquid-gas (288.15 K, x1 = 0.4897): 35.8 ± 1.2 mN/m
- surface tension liquid-gas (288.15 K, x1 = 0.6017): 38.3 ± 1.3 mN/m
- surface tension liquid-gas (288.15 K, x1 = 0.693): 40.9 ± 1.4 mN/m
- surface tension liquid-gas (288.15 K, x1 = 0.7974): 44.5 ± 1.5 mN/m
- surface tension liquid-gas (288.15 K, x1 = 0.905): 50.3 ± 1.7 mN/m
- surface tension liquid-gas (288.15 K, x1 = 1): 56.3 ± 1.9 mN/m
- mass density (288.15 K, x1 = 0.0999): 877.29 ± 2.2 kg/m3
- mass density (288.15 K, x1 = 0.201): 930.73 ± 2.3 kg/m3
- mass density (288.15 K, x1 = 0.2996): 967.04 ± 2.4 kg/m3
- mass density (288.15 K, x1 = 0.3993): 994.22 ± 2.5 kg/m3
- mass density (288.15 K, x1 = 0.4897): 1013.42 ± 2.5 kg/m3
- mass density (288.15 K, x1 = 0.6017): 1032.37 ± 2.6 kg/m3
- mass density (288.15 K, x1 = 0.693): 1044.81 ± 2.6 kg/m3
- mass density (288.15 K, x1 = 0.7974): 1056.62 ± 2.6 kg/m3
- mass density (288.15 K, x1 = 0.905): 1066.7 ± 2.7 kg/m3
- mass density (288.15 K, x1 = 1): 1074.97 ± 2.7 kg/m3
- surface tension liquid-gas (293.15 K, x1 = 0.0999): 25.1 ± 0.8 mN/m
- surface tension liquid-gas (293.15 K, x1 = 0.201): 27.5 ± 0.9 mN/m
- surface tension liquid-gas (293.15 K, x1 = 0.2996): 29.8 ± 1 mN/m
- surface tension liquid-gas (293.15 K, x1 = 0.3993): 32.9 ± 1.1 mN/m
- surface tension liquid-gas (293.15 K, x1 = 0.4897): 35.5 ± 1.2 mN/m
- surface tension liquid-gas (293.15 K, x1 = 0.6017): 38 ± 1.3 mN/m
- surface tension liquid-gas (293.15 K, x1 = 0.693): 40.6 ± 1.4 mN/m
- surface tension liquid-gas (293.15 K, x1 = 0.7974): 44.2 ± 1.5 mN/m
- surface tension liquid-gas (293.15 K, x1 = 0.905): 50 ± 1.7 mN/m
- surface tension liquid-gas (293.15 K, x1 = 1): 56 ± 1.9 mN/m
- mass density (293.15 K, x1 = 0.0999): 873.42 ± 2.2 kg/m3
- mass density (293.15 K, x1 = 0.201): 927.12 ± 2.3 kg/m3
- mass density (293.15 K, x1 = 0.2996): 963.57 ± 2.4 kg/m3
- mass density (293.15 K, x1 = 0.3993): 990.86 ± 2.5 kg/m3
- mass density (293.15 K, x1 = 0.4897): 1010.13 ± 2.5 kg/m3
- mass density (293.15 K, x1 = 0.6017): 1029.14 ± 2.6 kg/m3
- mass density (293.15 K, x1 = 0.693): 1041.62 ± 2.6 kg/m3
- mass density (293.15 K, x1 = 0.7974): 1053.47 ± 2.6 kg/m3
- mass density (293.15 K, x1 = 0.905): 1063.59 ± 2.7 kg/m3
- mass density (293.15 K, x1 = 1): 1071.9 ± 2.7 kg/m3
- surface tension liquid-gas (298.15 K, x1 = 0.0999): 24.6 ± 0.8 mN/m
- surface tension liquid-gas (298.15 K, x1 = 0.201): 27.1 ± 0.9 mN/m
- surface tension liquid-gas (298.15 K, x1 = 0.2996): 29.5 ± 1 mN/m
- surface tension liquid-gas (298.15 K, x1 = 0.3993): 32.6 ± 1.1 mN/m
- surface tension liquid-gas (298.15 K, x1 = 0.4897): 35.2 ± 1.2 mN/m
- surface tension liquid-gas (298.15 K, x1 = 0.6017): 37.7 ± 1.3 mN/m
- surface tension liquid-gas (298.15 K, x1 = 0.693): 40.3 ± 1.4 mN/m
- surface tension liquid-gas (298.15 K, x1 = 0.7974): 43.9 ± 1.5 mN/m
- surface tension liquid-gas (298.15 K, x1 = 0.905): 49.7 ± 1.7 mN/m
- surface tension liquid-gas (298.15 K, x1 = 1): 55.7 ± 1.9 mN/m
- mass density (298.15 K, x1 = 0.0999): 869.54 ± 2.2 kg/m3
- mass density (298.15 K, x1 = 0.201): 923.5 ± 2.3 kg/m3
- mass density (298.15 K, x1 = 0.2996): 960.1 ± 2.4 kg/m3
- mass density (298.15 K, x1 = 0.3993): 987.5 ± 2.5 kg/m3
- mass density (298.15 K, x1 = 0.4897): 1006.84 ± 2.5 kg/m3
- mass density (298.15 K, x1 = 0.6017): 1025.91 ± 2.6 kg/m3
- mass density (298.15 K, x1 = 0.693): 1038.43 ± 2.6 kg/m3
- mass density (298.15 K, x1 = 0.7974): 1050.31 ± 2.6 kg/m3
- mass density (298.15 K, x1 = 0.905): 1060.48 ± 2.7 kg/m3
- mass density (298.15 K, x1 = 1): 1068.83 ± 2.7 kg/m3
- surface tension liquid-gas (303.15 K, x1 = 0.0999): 24.2 ± 0.8 mN/m
- surface tension liquid-gas (303.15 K, x1 = 0.201): 26.7 ± 0.9 mN/m
- surface tension liquid-gas (303.15 K, x1 = 0.2996): 29.1 ± 1 mN/m
- surface tension liquid-gas (303.15 K, x1 = 0.3993): 32.3 ± 1.1 mN/m
- surface tension liquid-gas (303.15 K, x1 = 0.4897): 34.9 ± 1.2 mN/m
- surface tension liquid-gas (303.15 K, x1 = 0.6017): 37.4 ± 1.3 mN/m
- surface tension liquid-gas (303.15 K, x1 = 0.693): 40 ± 1.4 mN/m
- surface tension liquid-gas (303.15 K, x1 = 0.7974): 43.6 ± 1.5 mN/m
- surface tension liquid-gas (303.15 K, x1 = 0.905): 49.4 ± 1.7 mN/m
- surface tension liquid-gas (303.15 K, x1 = 1): 55.5 ± 1.9 mN/m
- mass density (303.15 K, x1 = 0.0999): 865.66 ± 2.2 kg/m3
- mass density (303.15 K, x1 = 0.201): 919.87 ± 2.3 kg/m3
- mass density (303.15 K, x1 = 0.2996): 956.64 ± 2.4 kg/m3
- mass density (303.15 K, x1 = 0.3993): 984.14 ± 2.5 kg/m3
- mass density (303.15 K, x1 = 0.4897): 1003.56 ± 2.5 kg/m3
- mass density (303.15 K, x1 = 0.6017): 1022.7 ± 2.6 kg/m3
- mass density (303.15 K, x1 = 0.693): 1035.25 ± 2.6 kg/m3
- mass density (303.15 K, x1 = 0.7974): 1047.18 ± 2.6 kg/m3
- mass density (303.15 K, x1 = 0.905): 1057.35 ± 2.6 kg/m3
- mass density (303.15 K, x1 = 1): 1065.76 ± 2.7 kg/m3
- surface tension liquid-gas (308.15 K, x1 = 0.0999): 23.8 ± 0.8 mN/m
- surface tension liquid-gas (308.15 K, x1 = 0.201): 26.3 ± 0.9 mN/m
- surface tension liquid-gas (308.15 K, x1 = 0.2996): 28.8 ± 1 mN/m
- surface tension liquid-gas (308.15 K, x1 = 0.3993): 31.9 ± 1.1 mN/m
- surface tension liquid-gas (308.15 K, x1 = 0.4897): 34.5 ± 1.2 mN/m
- surface tension liquid-gas (308.15 K, x1 = 0.6017): 37 ± 1.2 mN/m
- surface tension liquid-gas (308.15 K, x1 = 0.693): 39.7 ± 1.3 mN/m
- surface tension liquid-gas (308.15 K, x1 = 0.7974): 43.3 ± 1.5 mN/m
- surface tension liquid-gas (308.15 K, x1 = 0.905): 49.1 ± 1.7 mN/m
- surface tension liquid-gas (308.15 K, x1 = 1): 55.2 ± 1.9 mN/m
- mass density (308.15 K, x1 = 0.0999): 861.77 ± 2.2 kg/m3
- mass density (308.15 K, x1 = 0.201): 916.25 ± 2.3 kg/m3
- mass density (308.15 K, x1 = 0.2996): 953.18 ± 2.4 kg/m3
- mass density (308.15 K, x1 = 0.3993): 980.79 ± 2.5 kg/m3
- mass density (308.15 K, x1 = 0.4897): 1000.29 ± 2.5 kg/m3
- mass density (308.15 K, x1 = 0.6017): 1019.5 ± 2.5 kg/m3
- mass density (308.15 K, x1 = 0.693): 1032.09 ± 2.6 kg/m3
- mass density (308.15 K, x1 = 0.7974): 1044.05 ± 2.6 kg/m3
- mass density (308.15 K, x1 = 0.905): 1054.26 ± 2.6 kg/m3
- mass density (308.15 K, x1 = 1): 1062.7 ± 2.7 kg/m3
- surface tension liquid-gas (313.15 K, x1 = 0.0999): 23.4 ± 0.8 mN/m
- surface tension liquid-gas (313.15 K, x1 = 0.201): 25.9 ± 0.9 mN/m
- surface tension liquid-gas (313.15 K, x1 = 0.2996): 28.3 ± 1 mN/m
- surface tension liquid-gas (313.15 K, x1 = 0.3993): 31.4 ± 1.1 mN/m
- surface tension liquid-gas (313.15 K, x1 = 0.4897): 34.1 ± 1.2 mN/m
- surface tension liquid-gas (313.15 K, x1 = 0.6017): 36.7 ± 1.2 mN/m
- surface tension liquid-gas (313.15 K, x1 = 0.693): 39.4 ± 1.3 mN/m
- surface tension liquid-gas (313.15 K, x1 = 0.7974): 43.1 ± 1.5 mN/m
- surface tension liquid-gas (313.15 K, x1 = 0.905): 48.8 ± 1.7 mN/m
- surface tension liquid-gas (313.15 K, x1 = 1): 54.9 ± 1.9 mN/m
- mass density (313.15 K, x1 = 0.0999): 857.88 ± 2.1 kg/m3
- mass density (313.15 K, x1 = 0.201): 912.63 ± 2.3 kg/m3
- mass density (313.15 K, x1 = 0.2996): 949.73 ± 2.4 kg/m3
- mass density (313.15 K, x1 = 0.3993): 977.47 ± 2.5 kg/m3
- mass density (313.15 K, x1 = 0.4897): 997.04 ± 2.5 kg/m3
- mass density (313.15 K, x1 = 0.6017): 1016.31 ± 2.5 kg/m3
- mass density (313.15 K, x1 = 0.693): 1028.95 ± 2.6 kg/m3
- mass density (313.15 K, x1 = 0.7974): 1040.95 ± 2.6 kg/m3
- mass density (313.15 K, x1 = 0.905): 1051.18 ± 2.6 kg/m3
- mass density (313.15 K, x1 = 1): 1059.66 ± 2.7 kg/m3
- surface tension liquid-gas (318.15 K, x1 = 0.0999): 22.7 ± 0.8 mN/m
- surface tension liquid-gas (318.15 K, x1 = 0.201): 25.4 ± 0.9 mN/m
- surface tension liquid-gas (318.15 K, x1 = 0.2996): 27.9 ± 0.9 mN/m
- surface tension liquid-gas (318.15 K, x1 = 0.3993): 31.1 ± 1.1 mN/m
- surface tension liquid-gas (318.15 K, x1 = 0.4897): 33.8 ± 1.1 mN/m
- surface tension liquid-gas (318.15 K, x1 = 0.6017): 36.4 ± 1.2 mN/m
- surface tension liquid-gas (318.15 K, x1 = 0.693): 39 ± 1.3 mN/m
- surface tension liquid-gas (318.15 K, x1 = 0.7974): 42.7 ± 1.4 mN/m
- surface tension liquid-gas (318.15 K, x1 = 0.905): 48.6 ± 1.6 mN/m
- surface tension liquid-gas (318.15 K, x1 = 1): 54.5 ± 1.8 mN/m
- mass density (318.15 K, x1 = 0.0999): 853.98 ± 2.1 kg/m3
- mass density (318.15 K, x1 = 0.201): 909.01 ± 2.3 kg/m3
- mass density (318.15 K, x1 = 0.2996): 946.29 ± 2.4 kg/m3
- mass density (318.15 K, x1 = 0.3993): 974.15 ± 2.4 kg/m3
- mass density (318.15 K, x1 = 0.4897): 993.79 ± 2.5 kg/m3
- mass density (318.15 K, x1 = 0.6017): 1013.14 ± 2.5 kg/m3
- mass density (318.15 K, x1 = 0.693): 1025.82 ± 2.6 kg/m3
- mass density (318.15 K, x1 = 0.7974): 1037.86 ± 2.6 kg/m3
- mass density (318.15 K, x1 = 0.905): 1048.12 ± 2.6 kg/m3
- mass density (318.15 K, x1 = 1): 1056.64 ± 2.6 kg/m3
